Test system: Wistar rats
Assay: formalin model of inflammatory pain
Format: in vivo
Details: 100 mg/paw subcutaneous, 5 minutes before formalin

For `O=C(c1ccccc1)c1ccc2n1CCC2C(=O)O` (stereo not shown) [Ketorolac, ketorolac], the “reduction of inflammatory pain (nociceptive response)” value was ~50%.
